Data published in paper PMC6253949, “The Inhibitory Action of Kohamaic Acid A Derivatives on Mammalian DNA Polymerase β” (Molecules, 2008).

Assays:
Human DNA polymerase λ = target: T1, Human DNA polymerase λ (Homo sapiens, UniProt Q9UGP5); test: DNA polymerase assay, human pol λ; type: biochemical
T1 construct: His tag; made in house; host or cells: E. coli (from the title of the cited method)
T1 sequence (Q9UGP5 1-575): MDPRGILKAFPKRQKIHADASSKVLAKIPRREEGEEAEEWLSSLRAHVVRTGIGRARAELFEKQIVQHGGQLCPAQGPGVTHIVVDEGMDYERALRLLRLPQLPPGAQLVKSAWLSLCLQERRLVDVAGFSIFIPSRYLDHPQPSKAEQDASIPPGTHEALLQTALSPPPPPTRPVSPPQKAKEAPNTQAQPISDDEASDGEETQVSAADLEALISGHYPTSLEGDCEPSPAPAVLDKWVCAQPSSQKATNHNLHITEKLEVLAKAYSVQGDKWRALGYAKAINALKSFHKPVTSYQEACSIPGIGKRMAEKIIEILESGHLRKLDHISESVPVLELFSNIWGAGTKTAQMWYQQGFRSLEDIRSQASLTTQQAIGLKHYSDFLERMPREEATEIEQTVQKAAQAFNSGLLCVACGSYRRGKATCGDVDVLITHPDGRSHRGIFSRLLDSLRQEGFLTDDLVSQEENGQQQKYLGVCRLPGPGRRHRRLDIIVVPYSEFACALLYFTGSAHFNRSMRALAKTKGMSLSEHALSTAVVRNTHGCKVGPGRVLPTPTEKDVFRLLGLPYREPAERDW
Text: (§1) Pol α was purified from calf thymus by immuno-affinity column chromatography as described by Tamai et al.. Recombinant rat pol β was purified from E. coli JMpβ5 as described by Date et al.. The human pol γ catalytic gene was cloned into pFastBac. Histidine-tagged enzyme was expressed using the BAC-TO-BAC HT Baculovirus Expression System according to the supplier's manual (LIFE TECHNOLOGIES, MD, USA) and purified using ProBoundresin (Invitrogen Japan, Tokyo, Japan). Human pols δ and ε were purified by the nuclear fractionation of human peripheral blood cancer cells (Molt-4) using the second subunit of pols δ and ε-conjugated affinity column chromatography, respectively. Recombinant human pols η and ι tagged with His6 at their C-terminal were expressed in SF9 insect cells using the baculovirus expression system, and were purified as described previously. A truncated form of pol κ (i.e., hDINB1DC) with 6 x His-tags attached at the C-terminal was overproduced using the BAC-to-BAC Baculovirus Expression System kit (GIBCO BRL, MD, USA) and purified as described previously. […]
(§2) For pols, poly(dA)/oligo(dT)12-18 (A/T = 2/1) and dTTP were used as the DNA template-primer and nucleotide (i.e., dNTP) substrate, respectively. […] Activity without the inhibitor was considered 100%, and the remaining activity at each concentration of the inhibitor was determined relative to this value. […]

Human DNA polymerase δ = target: T2, Human DNA polymerase δ (Homo sapiens, UniProt P28340); test: DNA polymerase assay, human pol δ; type: biochemical
T2 construct: Human pols δ and ε were purified by the nuclear fractionation of human peripheral blood cancer cells (Molt-4); endogenous in cells; host or cells: Molt-4
T2 sequence (P28340 1-1107): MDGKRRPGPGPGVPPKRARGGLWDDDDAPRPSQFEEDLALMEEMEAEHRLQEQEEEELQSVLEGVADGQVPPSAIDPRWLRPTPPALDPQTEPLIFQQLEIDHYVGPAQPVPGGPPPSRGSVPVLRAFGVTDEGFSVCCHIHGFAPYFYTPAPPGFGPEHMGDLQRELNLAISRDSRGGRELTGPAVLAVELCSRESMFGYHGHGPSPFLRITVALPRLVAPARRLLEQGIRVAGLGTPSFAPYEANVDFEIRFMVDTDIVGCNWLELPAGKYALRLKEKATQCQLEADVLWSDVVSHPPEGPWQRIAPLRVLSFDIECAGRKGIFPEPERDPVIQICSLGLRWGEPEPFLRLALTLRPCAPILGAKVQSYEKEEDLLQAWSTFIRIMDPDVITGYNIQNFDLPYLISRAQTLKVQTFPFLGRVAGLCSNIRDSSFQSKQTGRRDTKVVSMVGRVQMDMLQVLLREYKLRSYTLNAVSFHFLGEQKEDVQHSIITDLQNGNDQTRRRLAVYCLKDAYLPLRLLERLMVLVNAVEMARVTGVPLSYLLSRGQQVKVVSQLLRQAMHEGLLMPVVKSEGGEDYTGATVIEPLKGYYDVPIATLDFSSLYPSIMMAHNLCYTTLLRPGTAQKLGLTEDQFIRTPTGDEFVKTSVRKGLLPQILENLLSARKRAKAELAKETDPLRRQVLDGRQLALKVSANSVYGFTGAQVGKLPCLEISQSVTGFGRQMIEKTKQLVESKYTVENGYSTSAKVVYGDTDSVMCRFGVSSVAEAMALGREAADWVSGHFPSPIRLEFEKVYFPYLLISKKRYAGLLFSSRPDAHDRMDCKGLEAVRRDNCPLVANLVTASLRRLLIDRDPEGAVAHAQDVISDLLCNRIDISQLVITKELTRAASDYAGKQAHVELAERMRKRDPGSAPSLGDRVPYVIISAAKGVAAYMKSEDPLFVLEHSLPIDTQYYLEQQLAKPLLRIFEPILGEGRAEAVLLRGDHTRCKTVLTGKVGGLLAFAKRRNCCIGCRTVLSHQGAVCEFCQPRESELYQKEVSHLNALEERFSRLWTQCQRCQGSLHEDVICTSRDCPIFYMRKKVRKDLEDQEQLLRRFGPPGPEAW
Text: as §1, §2

**Q.** With `CC1=CC[C@H]2C(C)(C)CCC[C@]2(C)[C@H]1CCCCCCCCCCCCCCCCC(=O)O` (relative stereo) [compound 11, (1S*,4aS*,8aS*)-17-(1,4,4a,5,6,7,8,8a-octahydro-2,5,5,8a-tetramethylnaphthalen-1-yl)heptadecanoic acid] as the compound, how does the IC50 (Human DNA polymerase λ) read?
**A.** 4.67 ± 0.23 µM

**Q.** What about the “Kinetic mode of inhibition” value (Human DNA polymerase λ; with respect to both the DNA template-primer and the dNTP substrate) of the same compound?
**A.** competitive

**Q.** And the IC50 (Human DNA polymerase δ)?
**A.** 4.89 ± 0.24 µM
